Common to all, as to type: cell-based, mice
For test [1], the system named is Bcl-XL. As to the kind of experiment: Bcl-XL expression by Western blot in retrovirally infected T cells. Conditions: cells expressing the construct, anti-CD3 (10 μg/ml) alone or with soluble anti-CD28 (1.0 μg/ml).
In test [2] the test system is IL-2. Nature of the test: IL-2 content of culture supernatants by CTLL-2 bioassay. Conditions: cells expressing the construct; OVA peptide antigen or antigen plus anti-CD28 (1.0 μg/ml); supernatant at 48 hours. On the procedure:
FIG. 3 contains three bar graphs. Splenocytes from CD28-deficient DO11.10 mice were infected with retrovirus encoding either control (GFPRV) or wild type CD28 (FLCD28) or mutant CD28 constructs and stimulated with OVA(323-339) peptide alone, with CTLA4Ig (10 μg/ml) or with anti-CD28 mAb (1.0 μg/ml). Culture supernatant was harvested at 48 hours and assessed for IL-2 by CTLL-2 bioassay. Shown is the tritiated thymidine incorporation of the CTLL-2 cells. The mean +/−the std deviation of quadruplicate wells is plotted. Data from one representative experiment is shown. A) CTLL-2 assay following stimulation with 0.1 μM OVA. B) CTLL-2 assay following stimulation with 0.03 μM OVA.
Proliferation assays: Wild type or CD28-deficient DO11.10 splenocytes were isolated and infected with retrovirus encoding for either vector alone, full-length CD28, or mutant CD28 proteins. 5×10^4 infected cells were cocultured with 1.5×10^5 T-depleted, irradiated splenocytes from Balb/c mice. Graded doses of OVA(323-339) peptide were added alone or in combination with murine CTLA4Ig (10 μg/ml, provided by Genetics Institute, Cambridge Mass.), anti-CD28 mAb (1.0 μg/ml) or control Ig. Proliferation was determined by tritiated thymidine incorporation for the final 8 hours of a 72 hour culture. All conditions were plated in quadruplicate and the mean +/− standard deviation of the quadruplicate wells was determined. Culture supernatants were harvested from replicate plates at 48 hours and were assayed for IL-2 content by CTLL-2 bioassay. All experiments were repeated a minimum of three times. Representative data from one experiment is presented.
CD28 regulates IL-2 by both transcriptional and post-transcriptional processes (Fraser, J. D., etal., 1991. CD28. Science 251:313. Lindsten, T., et al 1989. Science 244:339). […]

In test [3] the test system is CD28-deficient DO11.10 splenocytes (T cells). As to the kind of experiment: Proliferation assay: tritiated thymidine incorporation of retrovirally infected splenocytes stimulated with OVA(323-339) peptide and APC. As to conditions: CD28-deficient T cells reconstituted with the construct; for CD28-dependent proliferation: OVA(323-339) peptide plus T-depleted irradiated Balb/c splenocytes, final 8 h of 72 h culture. In general terms: Dividing cells build labelled thymidine or BrdU into new DNA.

Entries after “also recorded” stand apart in the source; their conditions may differ.

Turning to “CD28P187,190A: CD28 mutant with alanine instead of proline residues at position 187 and 190 (SEQ ID NO: 7) (IWTNSRRLLQSDYMNMTPRRPGLTRKPYQAYAAARDFAAYRP; listed as Homo sapiens)”, the “induction of Bcl-XL protein” value in test [1] is given as “Bcl-XL induction was induced”; in test [1] (listed as CD28PI 87,190A), “increased Bcl-XL expression”. Besides, in test [2], the IL-2 secretion entry was “marked decrease in IL-2 secretion”. For the same substance, the CD28-dependent proliferation entry in test [3] was “abrogated CD28-dependent proliferation”.

Take “CD28Y170F: mutant CD28 with phenylalanine substituted for the tyrosine at position 170 (SEQ ID NO: 6) (IWTNSRRLLQSDFMNMTPRRPGLTRKPYQPYAPARDFAAYRP; listed as Homo sapiens)”: the “induction of Bcl-XL protein” value in test [1] was “unable to induce Bcl-XL induction”. Moreover, the IL-2 secretion result in test [2] is reported as “comparable to wild type; also recorded: equivalent levels as cells reconstituted with wild type CD28”. Moreover, in test [3], the CD28-dependent proliferation result was “appeared normal”. Moreover, the “CD28-dependent proliferation, % proliferation of controls” value in test [3] (multiple experiments (FIG. 2B)) is reported as 60-80%.

As to “CD28Y188F: CD28 mutant which lacked the tyrosine within the PYAP motif (SEQ ID NO: 8) (IWTNSRRLLQSDYMNMTPRRPGLTRKPYQPFAPARDFAAYRP; listed as Homo sapiens)”, the IL-2 secretion result in test [2] is listed as “comparable to wild type”. Also, the CD28-dependent proliferation entry in test [3] is listed as “less effect”.

Turning to “CD28d16: CD28 mutant with deletion of the C-terminal 16 amino acids (SEQ ID NO: 5) (IWTNSRRLLQSDYMNMTPRRPGLTRK; listed as Homo sapiens)”, in test [1], the “induction of Bcl-XL protein” value was “unable to induce Bcl-XL induction”. For the same substance, the CD28-dependent proliferation entry in test [3] is “did not produce any significant CD28-dependent proliferation”.

Regarding “FLCD28: full-length wild type murine CD28 expressed by retrovirus (SEQ ID NO: 3) (IWTNSRRLLQSDYMNMTPRRPGLTRKPYQPYAPARDFAAYRP; listed as Homo sapiens)”, in test [1], the “induction of Bcl-XL protein” value is reported as “CD28-dependent induction of Bcl-XL protein”. The CD28-dependent proliferation entry in test [3] is given as “strong proliferative response”.

The record behind these values is patent publication US20030166502A1, “Differential regulation of T cell survival and proliferation” (Washington University, priority 2001, published 2003).
